Test results as given in patent US9113629B2, “4-amino-6-(4-substituted-phenyl)-picolinates and 6-amino-2-(4-substituted-phenyl)-pyrimidine-4-carboxylates and their use as herbicides” (DOW AGROSCIENCES LLC, priority 2013, dated 2015).
Where two headings read alike, the source gives them in different places.

Experiments:
[1] = system: Key Grass and Sedge Weeds as well as Grass Crops; assay: Post-emergent Test II herbicidal activity (Table 6); assay type: in vivo; conditions: post-emergence, 336 h; for pest or weed control at 70 g/ha: application rate 70 g ai/ha; for pest or weed control at 140 g/ha: application rate 140 g ai/ha
Summary of the method: (§1)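 Plants grown in Metro-Mix 360 (pH 6.0–6.8) in a greenhouse (~15 h photoperiod, 23–29 °C day) to first or second true leaf stage, then sprayed with compound in acetone/DMSO/aqueous crop-oil-surfactant carrier at 187 L/ha by track sprayer. Injury visually scored 0–100% versus untreated plants after 14 d.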

[2] = system: Key Broadleaf Weed and Crop Species; assay: Post-emergent Test II herbicidal activity (Table 5); assay type: in vivo; conditions: post-emergence, 336 h, post-emergent, 14 days after application; for pest or weed control at 70 g/ha: 70 g ai/ha; for pest or weed control at 140 g/ha: 140 g ai/ha
Summary of the method: as §1

[3] = Triticum aestivum, TRZSS (wheat), read-out: Visual Growth Reduction (%) 14 Days After Application, TRZSS
[4] = CYPES: yellow nutsedge (Cyperus esculentus), read-out: Visual Growth Reduction (%) 14 Days After Application, CYPES
[5] = DIGSA: crabgrass (Digitaria sanguinalis), read-out: Visual Growth Reduction (%) 14 Days After Application, DIGSA
[6] = ECHCG: barnyardgrass (Echinochloa crus-galli), read-out: Visual Growth Reduction (%) 14 Days After Application, ECHCG
[7] = ORYSA: rice (Oryza sativa), read-out: Visual Growth Reduction (%) 14 Days After Application, ORYSA
[8] = SETFA: giant foxtail (Setaria faberi), read-out: Visual Growth Reduction (%) 14 Days After Application, SETFA
[9] = SORVU: grain sorghum (Sorghum vulgare), read-out: Visual Growth Reduction (%) 14 Days After Application, SORVU
[10] = ZEAMX: maize, corn (Zea mays), read-out: Visual Growth Reduction (%) 14 Days After Application, ZEAMX
[11] = ABUTH: velvetleaf (Abutilon theophrasti), read-out: Visual Growth Reduction (%) 14 Days After Application ABUTH
[12] = AMARE: redroot pigweed (Amaranthus retroflexus), read-out: Visual Growth Reduction (%) 14 Days After Application AMARE
[13] = BRSNN: oilseed-rape, canola (Brassica napus), read-out: Visual Growth Reduction (%) 14 Days After Application BRSNN
[14] = CHEAL: lambsquarters (Chenopodium album), read-out: Visual Growth Reduction (%) 14 Days After Application CHEAL
[15] = EPHHL: wild poinsettia (Euphorbia heterophylla), read-out: Visual Growth Reduction (%) 14 Days After Application EPHHL
[16] = HELAN: sunflower (Helianthus annuus), read-out: Visual Growth Reduction (%) 14 Days After Application HELAN
[17] = VIOTR: wild pansy (Viola tricolor), read-out: Visual Growth Reduction (%) 14 Days After Application VIOTR

Compound: Nc1c(F)c(-c2cc(F)c(Br)cc2F)nc(C(=O)O)c1Cl [Compound 42, 4-amino-6-(4-bromo-2,5-difluorophenyl)-3-chloro-5-fluoropicolinic acid]
- pest or weed control at 70 g/ha [1, 3]: 60 to 74%
- pest or weed control at 140 g/ha [1, 3]: 75 to 84%
- pest or weed control at 70 g/ha [1, 4]: 95 to 100%
- pest or weed control at 140 g/ha [1, 4]: 95 to 100%
- pest or weed control at 70 g/ha [1, 5]: 75 to 84%
- pest or weed control at 140 g/ha [1, 5]: 85 to 94%
- pest or weed control at 70 g/ha [1, 6]: 95 to 100%
- pest or weed control at 140 g/ha [1, 6]: 95 to 100%
- pest or weed control at 70 g/ha [1, 7]: 30 to 44%
- pest or weed control at 140 g/ha [1, 7]: 30 to 44%
- pest or weed control at 70 g/ha [1, 8]: 95 to 100%
- pest or weed control at 140 g/ha [1, 8]: 95 to 100%
- pest or weed control at 70 g/ha [1, 9]: 95 to 100%
- pest or weed control at 140 g/ha [1, 9]: 95 to 100%
- pest or weed control at 70 g/ha [1, 10]: 75 to 84%
- pest or weed control at 140 g/ha [1, 10]: 60 to 74%
- pest or weed control at 70 g/ha [2, 11]: 85 to 94%
- pest or weed control at 140 g/ha [2, 11]: 95 to 100%
- pest or weed control at 70 g/ha [2, 12]: 95 to 100%
- pest or weed control at 140 g/ha [2, 12]: 95 to 100%
- pest or weed control at 70 g/ha [2, 13]: 95 to 100%
- pest or weed control at 140 g/ha [2, 13]: 95 to 100%
- pest or weed control at 70 g/ha [2, 14]: 95 to 100%
- pest or weed control at 140 g/ha [2, 14]: 95 to 100%
- pest or weed control at 70 g/ha [2, 15]: 95 to 100%
- pest or weed control at 140 g/ha [2, 15]: 95 to 100%
- pest or weed control at 70 g/ha [2, 16]: 95 to 100%
- pest or weed control at 140 g/ha [2, 16]: 95 to 100%
- pest or weed control at 70 g/ha [2, 17]: 95 to 100%
- pest or weed control at 140 g/ha [2, 17]: 95 to 100%
